Experimental data as given in patent publication US5523308A, “Peptidyl heterocycles useful in the treatment of thrombin related disorders” (priority 1995, dated 1996).

Experiments:
[1] = molecular target: T1, Bovine type 1 trypsin (Bos taurus, UniProt P00760); test: Trypsin-catalyzed hydrolysis of chromogenic substrate Spectrozyme TRY (in vitro enzyme assay); type: biochemical; conditions: 3.2 U/ml trypsin, 0.1-0.3 mM Spectrozyme TRY; for Ki: read-out: Trp Ki (listed in place of the IC50); for IC50: read-out: Trp IC50
T1 construct: purchased Sigma
T1 sequence (P00760 24-246): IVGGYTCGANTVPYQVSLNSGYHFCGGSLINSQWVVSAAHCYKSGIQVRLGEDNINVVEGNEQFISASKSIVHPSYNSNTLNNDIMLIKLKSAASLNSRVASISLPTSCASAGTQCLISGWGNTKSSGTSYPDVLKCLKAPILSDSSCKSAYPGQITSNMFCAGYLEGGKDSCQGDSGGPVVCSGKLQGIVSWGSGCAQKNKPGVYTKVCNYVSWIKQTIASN
Description: The compounds of the invention were tested for their ability to inhibit thrombin mediated hydrolysis. An in vitro enzyme assay was performed as well as an ex vivo assay. In addition, the compounds were tested in vitro for their ability to inhibit trypsin, as an indication of their selectivity.
Trypsin-catalyzed hydrolysis rates were measured using the same method as the thrombin procedure.
The compound numbers in the table correspond to the examples described hereinafter.

[2] = molecular target: T2, human alpha-thrombin (Homo sapiens, UniProt P00734); test: Thrombin-catalyzed hydrolysis of chromogenic substrate Spectozyme TH (in vitro enzyme assay); type: biochemical; conditions: 1 nM thrombin, 37° C., pH 7.4; for Ki: 5-100 μM Spectozyme TH, read-out: Thr Ki (listed in place of the IC50); for IC50: 50 μM Spectozyme TH, read-out: Thr IC50
T2 construct: commercial human alpha-thrombin (American Diagnostica); purchased American Diagnostica
Description: Thrombin-catalyzed hydrolysis rates were measured spectrophotometrically using commercial human alpha-thrombin (American Diagnostica), a chromogenic substrate (Spectozyme® TH (H-D-HHT-Ala-Arg-pNA.2AcOH), American Diagnostica) in aqueous buffer (10 mM Tris, 10 mM Hepes, 150 mM NaCl, 0.1% PEG; pH 7.4), and a microplate reader (Molecular Devices). Changes in absorbance at 405 nm were monitored (Softmax, Molecular Devices), upon addition of enzyme, both with and without inhibitor present at 37° C. over 30 minutes. […] Michaelis-Menton kinetics were applied to the initial reaction slopes. […] Michaelis-Menton kinetics were applied to the initial reaction slopes using the program K.Cat (Bio Metallics Inc.).

[3] = rat, in vivo, iv
Description: An ex vivo assay was conducted to determine the duration of action of the compounds of Formula I. For this i.v. assay male rats (Long Evans, 350-500 g) were implanted with a teflon cannulae via the femoral artery while under anesthesia (pentobarbital i.p., 35 mg/kg). […] The animals were allowed to recover for at least 24 h after the surgical procedure.
The test compound was dispersed in water and delivered to the animal (0.25 mL) via the femoral vein. […] A plasma sample was obtained by centrifuging the blood at 10,000 rpm for 5 min. This sample is analyzed for thrombin inhibition using the chromogenic assay, described below.
Datum was collected over a 30 min period and the initial rate of substrate hydrolysis (V0 (mOD/min)) was calculated with an analysis program (Softmax, Molecular Devices).
The time to half plasma elimination (t 1/2) was calculated from the slope of Vo vs. time, using the following equation: t 1/2=-1.6 slope.

Structure (SMILES) | IC50 [1] | IC50 [2] | other results
CN(C)c1cccc2c(S(=O)(=O)N[C@@H](CCCNC(=N)N)C(=O)N3CCCCC3CCC(=O)c3nccs3)cccc12 (single isomer, unassigned) [Compound 26] | – | – | Ki [1]: 180 µM; Ki [2]: 38000 nM
CN(C)c1cccc2c(S(=O)(=O)N[C@@H](CCCNC(=N)N)C(=O)N3CCCCC3CCC(=O)c3nccs3)cccc12 (single isomer, unassigned) [Compound 27] | – | – | Ki [1]: 12 µM; Ki [2]: 1200 nM
CC1CNc2c(cccc2S(=O)(=O)N[C@@H](CCCNC(=N)N)C(=O)N2CC[C@@H](C)C[C@@H]2C(=O)O)C1 (stereo partly drawn) [Argatroban, reference compound] | – | – | Ki [1]: 2.9 µM
CN[C@H](Cc1ccccc1)C(=O)N1CCC[C@H]1C(=O)N[C@H](CCCNC(=N)N)C(=O)c1nc2ccccc2s1 [Compound 2, N-METHYL-D-PHENYLALANYL-N-[4-[(AMINOIMINOMETHYL)AMINO]-1R-[(BENXOTHIAZOL-2- YL)CARBONYL]BUTYL]-L-PROLINAMIDE] | – | – | Ki [2]: 0.9 nM
CN[C@H](Cc1ccccc1)C(=O)N1CCC[C@H]1C(=O)N[C@@H](CCCCNC(=N)N)C(=O)c1nc2ccccc2s1 [Compound 11, N-METHYL-D-PHENYLALANYL-N-[5-[(AMINOIMINOMETHYL)AMINO]-1S-[(BENXOTHIAZOL-2- YL)CARBONYL]PENTYL]-L-PROLINAMIDE] | – | – | Ki [1]: 6.01 µM; Ki [2]: 420 nM
CN[C@H](Cc1ccccc1)C(=O)N1CCC[C@H]1C(=O)N[C@@H](CCCNC(=N)N)C(=O)c1nc2ccc(C(=O)OC)cc2s1 [Compound 12, N-METHYL-D-PHENYLALANYL-N-[4-[(AMINOIMINOMETHYL)AMINO]-2S-[(6-METHOXYCARBON YLBENXOTHIAZOL-2-YL)CARBONYL]BUTYL]-L-PROLINAMIDE] | 3 nM | – | t1/2 (time to half plasma elimination) [3]: 43 min
CN[C@H](Cc1ccccc1)C(=O)N1CCC[C@H]1C(=O)N[C@@H](CCCNC(=N)N)C(=O)c1nc2ccc(C(=O)O)cc2s1 [Compound 13, N-METHYL-D-PHENYLALANYL-N-[4-[(AMINOIMINOMETHYL)AMINO]-1S-[(6-CARBOXYBENXOT HIAZOL-2-YL)CARBONYL]BUTYL]-L-PROLINAMIDE] | 2 nM | – | t1/2 (time to half plasma elimination) [3]: 25 min
CN[C@H](Cc1ccccc1)C(=O)N1CCC[C@H]1C(=O)N[C@@H](CCCNC(=N)N)C(=O)c1nc2ccc(C(N)=O)cc2s1 [Compound 14, N-METHYL-D-PHENYLALANYL-N-[4-[(AMINOIMINOMETHYL)AMINO]-1S-[(6-CARBOXAMIDOBE NXOTHIAZOL-2-YL)CARBONYL]BUTYL]-L-PROLINAMIDE] | 3 nM | – | –
CN[C@H](Cc1ccccc1)C(=O)N1CCC[C@H]1C(=O)N[C@@H](CCCNC(=N)N)C(=O)c1nc2ccc(CO)cc2s1 [Compound 15, N-METHYL-D-PHENYLALANYL-N-[4-[(AMINOIMINOMETHYL)AMINO]-1S-[(6-HYDROXYMETHYL BENXOTHIAZOL-2-YL)CARBONYL]BUTYL]-L-PROLINAMIDE] | 3 nM | – | t1/2 (time to half plasma elimination) [3]: 16 min
CN[C@H](Cc1ccccc1)C(=O)N1CCC[C@H]1C(=O)N[C@H](CCCNC(=N)N)C(=O)c1nc2ccc(CO)cc2s1 [Compound 16, N-METHYL-D-PHENYLALANYL-N-[4-[(AMINOIMINOMETHYL)AMINO]-1R-[(6-HYDROXYMETHYL BENXOTHIAZOL-2-YL)CARBONYL]BUTYL]-L-PROLINAMIDE] | 238 nM | – | –
CN[C@H](Cc1ccccc1)C(=O)N1CCC[C@H]1C(=O)N[C@@H](CCCNC(=N)N)C(=O)c1nc2ccc(F)cc2s1 [Compound 17, N-METHYL-D-PHENYLALANYL-N-[4-[(AMINOIMINOMETHYL)AMINO]-1S-[(6-FLUOROBENXOTH IAZOL-2-YL)CARBONYL]BUTYL]-L-PROLINAMIDE] | 4 nM | – | t1/2 (time to half plasma elimination) [3]: 8 min
CN[C@H](Cc1ccccc1)C(=O)N1CCC[C@H]1C(=O)N[C@@H](CCCNC(=N)N)C(=O)c1nc2ccc(F)cc2s1 [Compound 18, N-METHYL-D-PHENYLALANYL-N-[4-[(AMINOIMINOMETHYL)AMINO]-1S-[(6-FLUOROBENXOTH IAZOL-2-YL)CARBONYL]BUTYL]-L-PROLINAMIDE] | 130 nM | – | –
CCOC(=O)c1csc(C(=O)[C@H](CCCNC(=N)N)NC(=O)[C@@H]2CCCN2C(=O)[C@@H](Cc2ccccc2)NC)n1 [Compound 20, N-METHYL-D-PHENYLALANYL-N-[4-[(AMINOIMINOMETHYL)AMINO]-1S-[(4-ETHOXYCARBONY LTHIAZOL-2-YL)CARBONYL]BUTYL]-L-PROLINAMIDE] | 58 nM | 450 nM | –
CN[C@H](Cc1ccccc1)C(=O)N1CCC[C@H]1C(=O)N[C@@H](CCCNC(=N)N)C(=O)c1nccn1C [Compound 22] | 18400 nM | 1520 nM | –
CN[C@H](Cc1ccccc1)C(=O)N1CCC[C@H]1C(=O)N[C@@H](CCCNC(=N)N)C(=O)c1ccccn1 [Compound 23] | 238 nM | 928 nM | –
CN[C@H](Cc1ccccc1)C(=O)N1CCC[C@H]1C(=O)N[C@@H](CCCNC(=N)N)C(=O)c1nc2ccccc2c(=O)[nH]1 [Compound 24] | 14 nM | 106 nM | –
CN[C@H](CC1CCCCC1)C(=O)N1CCC[C@H]1C(=O)N[C@@H](CCCNC(=N)N)C(=O)c1nc2ccccc2s1 [Compound 29, N-METHYL-D-CYOLOHEXYLALANYL-N-[4-[(AMINOIMINOMETHYL)AMINO]-1S-[(BENXOTHIAZO L-2-YL)CARBONYL]BUTYL]-L-PROLINAMIDE] | 2 nM | – | t1/2 (time to half plasma elimination) [3]: 14 min

Structure (SMILES) | IC50 [1] | IC50 [2] | other results
N=C(N)NCCC[C@H](NC(=O)C1CCCC1)C(=O)c1nc2ccccc2s1 [Compound 31] | 80 nM | – | –
CN[C@H](Cc1ccc(F)cc1)C(=O)N1CCC[C@H]1C(=O)N[C@@H](CCCNC(=N)N)C(=O)c1nc2ccccc2s1 [Compound 32, N-METHYL-D-(4-FLUOROPHENYL)ALANYL-N-[4-[(AMINOIMINOMETHYL)AMINO]-1S-[(BENXO THIAZOL-2-YL)CARBONYL]BUTYL]-L-PROLINAMIDE] | 2 nM | – | t1/2 (time to half plasma elimination) [3]: 19 min
CNC(C(=O)N1CCCC1C(=O)NC(CCCNC(=N)N)C(=O)c1nc2ccccc2s1)c1ccccc1 [Compound 33, N-METHYL-D-PHENYLGLYCYL-N-[4-[(AMINOIMINOMETHYL)AMINO]-1S-[(BENXOTHIAZOL-2- YL)CARBONYL]BUTYL]-L-PROLINAMIDE] | 2 nM | – | t1/2 (time to half plasma elimination) [3]: 18 min
CN[C@H](Cc1ccccc1)C(=O)N1CCC[C@H]1C(=O)N[C@@H](Cc1ccccc1)C(=O)c1nc2ccccc2s1 [Compound 38] | 38700 nM | 29900 nM | –
CN[C@H](Cc1ccccc1)C(=O)N1CCC[C@H]1C(=O)N(C)[C@@H](CCCNC(=N)N)C(=O)c1nc2ccccc2s1 [Compound 40] | 7010 nM | 20500 nM | –
N=C(N)NCCC[C@H](NC(=O)[C@@H]1CCCN1C(=O)[C@H](N)Cc1ccccc1)C(=O)c1nc2ccccc2s1 [Compound 41, D-PHENYLALANYL-N-[4-[(AMINOIMINOMETHYL)AMINO]-1S-[(BENZOTHIAZOL-2-YL)CARBON YL]BUTYL]-L-PROLINAMIDE] | 1 nM | – | –
CN[C@H](Cc1ccccc1)C(=O)N1CCCC[C@H]1C(=O)N[C@@H](CCCNC(=N)N)C(=O)c1nc2ccccc2s1 [Compound 42, N-METHYL-D-PHENYLALANYL-N-[4-[(AMINOIMINOMETHYL)AMINO]-1S-[(BENZOTHIAZOL-2- YL)CARBONYL]BUTYL]-2S-PIPERIDINECARBOXAMIDE] | 2 nM | – | –
CNC1(C(=O)N2CCC[C@H]2C(=O)N[C@@H](CCCNC(=N)N)C(=O)c2nc3ccccc3s2)CCCCC1 [Compound 45, 1-(N-METHYLAMINO)-1-CYCLOHEXYLCARBONYL-N-[4-[(AMINOIMINOMETHYL)AMINO]-1S-[( BENZOTHIAZOL-2-YL)CARBONYL]BUTYL]-L-PROLINAMIDE] | 9 nM | 371 nM | –
N=C(N)NCCC[C@H](NC(=O)[C@@H]1CCCN1C(=O)C(N)(c1ccccc1)c1ccccc1)C(=O)c1nc2ccccc2s1 [Compound 46] | 3 nM | 15 nM | –
C[C@@](N)(Cc1ccccc1)C(=O)N1CCC[C@H]1C(=O)N[C@@H](CCCNC(=N)N)C(=O)c1nc2ccccc2s1 [Compound 47] | 4 nM | – | –
N=C(N)NCCC[C@H](NC(=O)[C@@H]1CCCN1)C(=O)c1nc2ccccc2s1 [Compound 48] | 684 nM | – | –
CN[C@H](Cc1ccccc1)C(=O)N1CCC[C@H]1C(=O)N[C@@H](CCCNC(=N)N)C(=O)c1nc2ccc(OC)cc2s1 [Compound 50, N-METHYL-D-PHENYLALANYL-N-[4-[(AMINOIMINOMETHYL)AMINO]-1S-[(6-METHOXYBENXOT HIAZOL-2-YL)CARBONYL]BUTYL]-L-PROLINAMIDE] | – | – | Ki [1]: 0.002 µM
CN[C@H](Cc1ccccc1)C(=O)N1CCC[C@H]1C(=O)N[C@@H](CCCNC(=N)N)C(=O)c1nc(C(=O)NCCc2ccccc2)cs1 [Compound 55] | 8.6 nM | 830 nM | –
CN[C@H](Cc1ccccc1)C(=O)N1CCC[C@H]1C(=O)N[C@H](CCCNC(=N)N)C(=O)c1nc(C(=O)NCCc2ccccc2)cs1 [Compound 56] | 27.9 nM | 21000 nM | –
CN[C@H](Cc1ccccc1)C(=O)N1CCC[C@H]1C(=O)N[C@@H](Cc1ccc(C(=N)N)cc1)C(=O)c1nc2ccccc2s1 [Compound 57] | 182 nM | 19600 nM | –
CN[C@H](Cc1ccccc1)C(=O)N1CCC[C@H]1C(=O)N[C@H](C=O)CCCNC(=N)N [reference compound] | – | – | Ki [1]: 0.0039 µM
